In article PMC3486884 (PLoS Pathogens, 2012):
Where two headings read alike, the source gives them in different places.

How the values were obtained:
HRV1A [1] = conditions: for relative infection: n=2
HRV1A [2] = assay: microbe, parasite or virus in culture; conditions: Human rhinovirus sp.; for activity at 0.03 µM / activity at 0.1 µM / activity at 0.31 µM / activity at 0.93 µM / activity at 2.78 µM / activity at 8.33 µM / activity at 25 µM: M-HeLa, 7 h; for activity at 0.03 µM: read-out: HRV1A infection (dsRNA), 0.03 µM; for activity at 0.1 µM: read-out: HRV1A infection (dsRNA), 0.10 µM; for activity at 0.31 µM: read-out: HRV1A infection (dsRNA), 0.31 µM; for activity at 0.93 µM: read-out: HRV1A infection (dsRNA), 0.93 µM; for activity at 2.78 µM: read-out: HRV1A infection (dsRNA), 2.78 µM; for activity at 8.33 µM: read-out: HRV1A infection (dsRNA), 8.33 µM; for activity at 25 µM: read-out: HRV1A infection (dsRNA), 25.00 µM
HRV2 [3] = conditions: n=2
HRV14 [4] = conditions: n=2
HRV16 = conditions: n=2
CVA21 [5] = conditions: n=2
CVB3 = conditions: n=2
CVB4 = conditions: n=2
HRV2 [6] = assay: microbe, parasite or virus in culture; conditions: Human rhinovirus sp., HRV2, HeLa, read-out: IC50 (HRV2)
HRV14 [7] = assay: microbe, parasite or virus in culture; conditions: Human rhinovirus sp., HRV14, HeLa, read-out: IC50 (HRV14)
CVA21 [8] = assay: microbe, parasite or virus in culture; conditions: Coxsackievirus, CVA21, HeLa, read-out: IC50 (CVA21)
[9] = test system: influenza virus (strain A/Puerto Rico/8/34/H1N1 depicted PR8); assay: microbe, parasite or virus in culture; conditions: unidentified influenza virus, A549, read-out: IC50 (PR8)

COc1ccccc1C(=O)Nc1ccc([N+](=O)[O-])cc1Cl [TVB-1333]
antiviral activity against HRV1A (structure-activity study, in words) (HRV1A [1]): eliminated antiviral activity | activity at 0.03 µM (HRV1A [2]): 112% | activity at 0.1 µM (HRV1A [2]): 99% | activity at 0.31 µM (HRV1A [2]): 107% | activity at 0.93 µM (HRV1A [2]): 92% | activity at 2.78 µM (HRV1A [2]): 84% | activity at 8.33 µM (HRV1A [2]): 157% | activity at 25 µM (HRV1A [2]): 207%

COc1ccccc1C(=O)Nc1ccc(C(F)(F)F)cc1Cl [TVB-1323]
antiviral activity against HRV1A (structure-activity study, in words) (HRV1A [1]): reduced antiviral efficacy | activity at 0.03 µM (HRV1A [2]): 101% | activity at 0.1 µM (HRV1A [2]): 95% | activity at 0.31 µM (HRV1A [2]): 97% | activity at 0.93 µM (HRV1A [2]): 97% | activity at 2.78 µM (HRV1A [2]): 106% | activity at 8.33 µM (HRV1A [2]): 108% | activity at 25 µM (HRV1A [2]): 113%

Nc1ccc(NC(=O)c2cc(Cl)ccc2O)c(Cl)c1 [TVB-1335]
antiviral activity against HRV1A (structure-activity study, in words) (HRV1A [1]): eliminated antiviral activity | activity at 0.03 µM (HRV1A [2]): 109% | activity at 0.1 µM (HRV1A [2]): 102% | activity at 0.31 µM (HRV1A [2]): 103% | activity at 0.93 µM (HRV1A [2]): 105% | activity at 2.78 µM (HRV1A [2]): 98% | activity at 8.33 µM (HRV1A [2]): 96% | activity at 25 µM (HRV1A [2]): 104%

COc1ccc(Br)cc1C(=O)Nc1cc([N+](=O)[O-])ccc1Cl [TVB-1337]
antiviral activity against HRV1A (structure-activity study, in words) (HRV1A [1]): reduced antiviral efficacy | activity at 0.03 µM (HRV1A [2]): 112% | activity at 0.1 µM (HRV1A [2]): 104% | activity at 0.31 µM (HRV1A [2]): 107% | activity at 0.93 µM (HRV1A [2]): 104% | activity at 2.78 µM (HRV1A [2]): 105% | activity at 8.33 µM (HRV1A [2]): 111% | activity at 25 µM (HRV1A [2]): 117%

CCOc1ccccc1C(=O)Nc1ccc([N+](=O)[O-])cc1Cl [TVB-1328]
antiviral activity against HRV1A (structure-activity study, in words) (HRV1A [1]): eliminated antiviral activity | activity at 0.03 µM (HRV1A [2]): 99% | activity at 0.1 µM (HRV1A [2]): 90% | activity at 0.31 µM (HRV1A [2]): 86% | activity at 0.93 µM (HRV1A [2]): 89% | activity at 2.78 µM (HRV1A [2]): 90% | activity at 8.33 µM (HRV1A [2]): 95% | activity at 25 µM (HRV1A [2]): 107%

COc1ccc(Cl)cc1C(=O)Nc1cc([N+](=O)[O-])ccc1Cl [TVB-1330]
antiviral activity against HRV1A (structure-activity study, in words) (HRV1A [1]): reduced antiviral efficacy | activity at 0.03 µM (HRV1A [2]): 101% | activity at 0.1 µM (HRV1A [2]): 103% | activity at 0.31 µM (HRV1A [2]): 99% | activity at 0.93 µM (HRV1A [2]): 97% | activity at 2.78 µM (HRV1A [2]): 101% | activity at 8.33 µM (HRV1A [2]): 105% | activity at 25 µM (HRV1A [2]): 111%

CCC(=O)Nc1ccc(Cl)c(NC(=O)c2ccccc2OC)c1 [TVB-1327]
antiviral activity against HRV1A (structure-activity study, in words) (HRV1A [1]): reduced antiviral efficacy | activity at 0.03 µM (HRV1A [2]): 118% | activity at 0.1 µM (HRV1A [2]): 118% | activity at 0.31 µM (HRV1A [2]): 110% | activity at 0.93 µM (HRV1A [2]): 107% | activity at 2.78 µM (HRV1A [2]): 96% | activity at 8.33 µM (HRV1A [2]): 107% | activity at 25 µM (HRV1A [2]): 115%

COC(=O)c1ccc(Cl)c(NC(=O)c2ccccc2OC)c1 [TVB-1325]
antiviral activity against HRV1A (structure-activity study, in words) (HRV1A [1]): reduced antiviral efficacy | activity at 0.03 µM (HRV1A [2]): 91% | activity at 0.1 µM (HRV1A [2]): 97% | activity at 0.31 µM (HRV1A [2]): 86% | activity at 0.93 µM (HRV1A [2]): 95% | activity at 2.78 µM (HRV1A [2]): 83% | activity at 8.33 µM (HRV1A [2]): 73% | activity at 25 µM (HRV1A [2]): 80%

O=C(Nc1ccc([N+](=O)[O-])cc1Cl)c1cc(Cl)ccc1OCCOc1ccccc1 [TVB-1329]
antiviral activity against HRV1A (structure-activity study, in words) (HRV1A [1]): did not diminish the antiviral efficacy compared to niclosamide | relative infection (HRV1A [1]; 0.1 µM): 1.00 | relative infection (HRV1A [1]; 0.3 µM): 1.04 | relative infection (HRV1A [1]; 0.9 µM): 1.10 | relative infection (HRV1A [1]; 2.8 µM): 1.02 | relative infection (HRV1A [1]; 8.3 µM): 0.59 | relative infection (HRV1A [1]; 25.0 µM): 0.05 | relative infection (HRV2 [3]; 0.1 µM): 1.03 | relative infection (HRV2 [3]; 0.3 µM): 1.10 | relative infection (HRV2 [3]; 0.9 µM): 0.98 | relative infection (HRV2 [3]; 2.8 µM): 0.68 | relative infection (HRV2 [3]; 8.3 µM): 0.36 | relative infection (HRV2 [3]; 25.0 µM): 0.02 | relative infection (HRV14 [4]; 0.1 µM): 0.86 | relative infection (HRV14 [4]; 0.3 µM): 0.87 | relative infection (HRV14 [4]; 0.9 µM): 0.97 | relative infection (HRV14 [4]; 2.8 µM): 0.86 | relative infection (HRV14 [4]; 8.3 µM): 0.58 | relative infection (HRV14 [4]; 25.0 µM): 0.10 | relative infection (HRV16; 0.1 µM): 0.84 | relative infection (HRV16; 0.3 µM): 0.98 | relative infection (HRV16; 0.9 µM): 1.04 | relative infection (HRV16; 2.8 µM): 1.26 | relative infection (HRV16; 8.3 µM): 0.99 | relative infection (HRV16; 25.0 µM): 0.14 | relative infection (CVA21 [5]; 0.1 µM): 0.86 | relative infection (CVA21 [5]; 0.3 µM): 0.97 | relative infection (CVA21 [5]; 0.9 µM): 1.08 | relative infection (CVA21 [5]; 2.8 µM): 1.13 | relative infection (CVA21 [5]; 8.3 µM): 1.29 | relative infection (CVA21 [5]; 25.0 µM): 0.68 | relative infection (CVB3; 0.1 µM): 0.97 | relative infection (CVB3; 0.3 µM): 1.06 | relative infection (CVB3; 0.9 µM): 1.19 | relative infection (CVB3; 2.8 µM): 1.25 | relative infection (CVB3; 8.3 µM): 1.07 | relative infection (CVB3; 25.0 µM): 1.01 | relative infection (CVB4; 0.1 µM): 1.12 | relative infection (CVB4; 0.3 µM): 1.28 | relative infection (CVB4; 0.9 µM): 1.51 | relative infection (CVB4; 2.8 µM): 1.62 | relative infection (CVB4; 8.3 µM): 1.33 | relative infection (CVB4; 25.0 µM): 0.46 | IC50 (HRV1A [2]; HeLa, read-out: IC50 (HRV1A)): 9.34 µM | activity at 0.03 µM (HRV1A [2]): 112% | activity at 0.1 µM (HRV1A [2]): 112% | activity at 0.31 µM (HRV1A [2]): 119% | activity at 0.93 µM (HRV1A [2]): 123% | activity at 2.78 µM (HRV1A [2]): 111% | activity at 8.33 µM (HRV1A [2]): 47% | activity at 25 µM (HRV1A [2]): 6% | IC50 (HRV2 [6]): 5.07 µM | IC50 (HRV14 [7]): 9.3 µM | IC50 (CVA21 [8]): ~26.6 µM | IC50 [9]: 10.3 µM

COc1c(C)cccc1C(=O)Nc1ccc([N+](=O)[O-])cc1Cl [TVB-1324]
antiviral activity against HRV1A (structure-activity study, in words) (HRV1A [1]): eliminated antiviral activity | activity at 0.03 µM (HRV1A [2]): 104% | activity at 0.1 µM (HRV1A [2]): 105% | activity at 0.31 µM (HRV1A [2]): 98% | activity at 0.93 µM (HRV1A [2]): 99% | activity at 2.78 µM (HRV1A [2]): 88% | activity at 8.33 µM (HRV1A [2]): 94% | activity at 25 µM (HRV1A [2]): 107%

O=C(Nc1ccc(NS(=O)(=O)c2ccccc2)cc1Cl)c1cc(Cl)ccc1O [TVB-1336]
antiviral activity against HRV1A (structure-activity study, in words) (HRV1A [1]): eliminated antiviral activity | activity at 0.03 µM (HRV1A [2]): 102% | activity at 0.1 µM (HRV1A [2]): 97% | activity at 0.31 µM (HRV1A [2]): 105% | activity at 0.93 µM (HRV1A [2]): 105% | activity at 2.78 µM (HRV1A [2]): 104% | activity at 8.33 µM (HRV1A [2]): 105% | activity at 25 µM (HRV1A [2]): 103%

CCOc1ccccc1C(=O)Nc1ccc(Cl)cc1Cl [TVB-1331]
antiviral activity against HRV1A (structure-activity study, in words) (HRV1A [1]): eliminated antiviral activity | activity at 0.03 µM (HRV1A [2]): 119% | activity at 0.1 µM (HRV1A [2]): 118% | activity at 0.31 µM (HRV1A [2]): 112% | activity at 0.93 µM (HRV1A [2]): 107% | activity at 2.78 µM (HRV1A [2]): 108% | activity at 8.33 µM (HRV1A [2]): 106% | activity at 25 µM (HRV1A [2]): 113%
